From patent US10808007B2, “Desacetoxytubulysin H and analogs thereof” (WILLIAM MARSH RICE UNIVERSITY, priority 2015, dated 2020)
Like-named read-outs stand apart in the source and are kept apart here.

How the values were obtained:
Format in all cases: cell-based
[1] = test system: HEK 293T (human embryonic kidney cells); assay: Cytotoxic assay (CellTiter-Glo, 72 h), HEK 293T
[2] = test system: MES SA (uterine sarcoma cells); assay: Cytotoxic assay (CellTiter-Glo, 72 h), MES SA
[3] = test system: MES SA DX (multidrug resistant uterine sarcoma cells); assay: Cytotoxic assay (CellTiter-Glo, 72 h), MES SA DX; conditions: Homo sapiens
[4] = Homo sapiens, HEK-293T, read-out: HEK 293T IC50 (nM)
[5] = Homo sapiens, MES-SA, read-out: MES SA IC50 (nM)
[6] = Homo sapiens, HEK-293T, 72 h, read-out: IC50 HEK 293T
[7] = Homo sapiens, MES-SA, 72 h, read-out: IC50 MES SA

Row | SMILES | IC50 [1, 4] | IC50 [2, 5] | IC50 [1, 6] | IC50 [2, 7] | IC50 [3] | further results
1 | CC(=O)O[C@H](C[C@H](C(C)C)N(C)C(=O)[C@@H](NC(=O)[C@H]1CCCCN1C)C(C)C)c1nc(C(=O)N[C@H]2CC[C@H](C(=O)O)CC2)cs1 [Tb-59, (1R,4r)-4-(2-((1R,3R)-1-Acetoxy-3-((S)—N,3-dimethyl-2-((R)-1-methylpiperidine-2-carboxamido)butanamido)-4-methylpentyl)thiazole-4-carboxamido)cyclohexane-1-carboxylic Acid] | > 100 nM | > 100 nM | – | – | – | –
2 | COC(=O)[C@@H](C)C[C@H](Cc1ccccc1)NC(=O)c1csc([C@@H](C[C@H](C(C)C)N(C)C(=O)[C@@H](NC(=O)[C@H]2CCCCN2C)C2CCCCC2)OC(C)=O)n1 [Tb33, (2S,4R)-Methyl 4-(2-((1R,3R)-1-acetoxy-3-((S)-2-cyclohexyl-N-methyl-2-((R)-1-methylpiperidine-2-carboxamido)acetamido)-4-methylpentyl)thiazole-4-carboxamido)-2-methyl-5-phenylpentanoate] | – | – | 0.048 nM | 0.066 nM | 101 nM | IC50 ([1]; Homo sapiens, HEK-293T, read-out: IC50 HEK 293T): 0.048 nM; IC50 ([2]; Homo sapiens, MES-SA, read-out: IC50 MES SA): 0.066 nM
3 | CC[C@H](C)[C@H](NC(=O)c1ncccn1)C(=O)N(C)[C@H](C[C@@H](OC(C)=O)c1nc(C(=O)N[C@@H](Cc2ccccc2)C[C@H](C)C(=O)OC)cs1)C(C)C [Tb34, (2S,4R)-methyl 4-(2-((1R,3R)-1-acetoxy-3-((2S,3S)—N,3-dimethyl-2-(pyrimidine-2-carboxamido)pentanamido)-4-methylpentyl)thiazole-4-carboxamido)-2-methyl-5-phenylpentanoate] | – | – | > 500 nM | > 1000 nM | > 1000 nM | –
4 | CC(=O)O[C@H](C[C@H](C(C)C)N(C)C(=O)[C@@H](NC(=O)[C@H]1CCCCN1C)C1CC1)c1cccc(C(=O)N[C@@H](Cc2ccccc2)C[C@H](C)C(=O)O)n1 [Tb37, (2S,4R)-4-(6-((1R,3R)-1-Acetoxy-3-((S)-2-cyclopropyl-N-methyl-2-((R)-1-methylpiperidine-2-carbox-amido)acetamido)-4-methylpentyl)picolinamido)-2-methyl-5-phenylpentanoic Acid] | – | – | 3.52 nM | 14.4 nM | > 1000 nM | –
5 | CCCCN1CCCC[C@@H]1C(=O)N[C@H](C(=O)N(C)[C@H](C[C@@H](OC(C)=O)c1nc(C(=O)N[C@H]2CC[C@H](C(=O)OC)CC2)cs1)C(C)C)C(C)C [Tb-60, Methyl (1R,4r)-4-(2-((1R,3R)-1-acetoxy-3-((S)-2-((R)-1-butylpiperidine-2-carboxamido)-N,3-dimethylbutanamido)-4-methylpentyl)thiazole-4-carboxamido)cyclohexane-1-carboxylate] | > 100 nM | > 100 nM | – | – | – | –
6 | COC(=O)CC12CC(NC(=O)c3csc([C@@H](C[C@H](C(C)C)N(C)C(=O)[C@@H](NC(=O)[C@H]4CCCCN4C)C(C)C)OC(C)=O)n3)(C1)C2 [Tb-56, Methyl 2-(3-(2-((1R,3R)-1-acetoxy-3-((S)—N,3-dimethyl-2-((R)-1-methylpiperidine-2-carboxamido)butanamido)-4-methylpentyl)thiazole-4-carboxamido)bicyclo[1.1.1]pentan-1-yl)] | 1.79 nM | ~2.73 nM | – | – | – | –
7 | CC[C@H](C)[C@H](NC(=O)[C@H]1CCCCN1C)C(=O)N(C)[C@H](CCc1nc(C(=O)N[C@@H](Cc2ccccc2)C[C@H](C)C(=O)OC)cs1)C(C)C [PTb-D42, Methyl(2S,4R)-4-(2-((R)-3-((2S,3S)—N,3-dimethyl-2-((R)-1-methylpiperidine-2-carboxamido)pentanamido)-4-methylpentyl)thiazole-4-carboxamido)-2-methyl-5-phenylpentanoate] | – | – | > 1000 nM | > 1000 nM | > 1000 nM | –
8 | COC(=O)[C@H](Cc1ccccc1)NC(=O)c1csc([C@@H](C[C@H](C(C)C)N(C)C(=O)[C@@H](NC(=O)[C@H]2CCCCN2C)C2CC2)OC(C)=O)n1 [Tb24, Methyl(2-((1R,3R)-1-acetoxy-3-((S)-2-cyclopropyl-N-methyl-2-((R)-1-methylpiperidine-2-carboxam-ido)acetamido)-4-methylpentyl)thiazole-4-carbonyl)-L-phenylalaninate] | – | – | 9.69 nM | 13.1 nM | > 100 nM | –
9 | COC(=O)[C@@H](C)C[C@H](Cc1ccccc1)NC(=O)c1csc([C@@H](C[C@H](C(C)C)N(C)C(=O)[C@@H](NC(=O)[C@H]2CCCCN2C)c2ccc(F)cc2)OC(C)=O)n1 [Tb29, (2S,4R)-Methyl 4-(2-((1R,3R)-1-acetoxy-3-((S)-2-(4-fluorophenyl)-N-methyl-2-((R)-1-methylpiperidine-2-carboxamido)acetamido)-4-methylpentyl)thiazole-4-carboxamido)-2-methyl-5-phenylpentan oate] | – | – | 2.24 nM | 2.61 nM | 500 nM | –
10 | COC(=O)[C@@H](C)C[C@H](Cc1ccccc1)NC(=O)c1csc([C@@H](C[C@H](C(C)C)N(C)C(=O)C2(NC(=O)[C@H]3CCCCN3C)CCCC2)OC(C)=O)n1 [Tb-52, Methyl (2S,4R)-4-(2-((1R,3R)-1-acetoxy-4-methyl-3-(N-methyl-1-((R)-1-methylpiperidine-2-carboxa-mido)cyclopentane-1-carboxamido)pentyl)thiazole-4-carboxamido)-2-methyl-5-phenylpentanoate] | 5.78 nM | 7.18 nM | – | – | – | –
11 | COC(=O)[C@@H](C)C[C@H](Cc1ccccc1)NC(=O)c1csc(CC[C@H](C(C)C)N(C)C(=O)[C@@H](NC(=O)[C@H]2CCCCN2C)C(C)C)n1 [PTb-D50, Methyl(2S,4R)-4-(2-((R)-3-((S)—N,3-dimethyl-2-((R)-1-methylpiperidine-2-carboxamido)butanamido)-4-methylpentyl)thiazole-4-carboxamido)-2-methyl-5-phenylpentanoate] | > 100 nM | > 100 nM | – | – | – | –
12 | CCCCN1CCCC[C@@H]1C(=O)N[C@H](C(=O)N(C)[C@H](C[C@@H](OC(C)=O)c1nc(C(=O)N[C@H]2CC[C@H](C(=O)O)CC2)cs1)C(C)C)C(C)C [Tb-61] | > 100 nM | > 100 nM | – | – | – | –
13 | CCCCN1CCCC[C@@H]1C(=O)N[C@H](C(=O)N(C)[C@H](CCc1nc(C(=O)N[C@@H](Cc2ccccc2)C[C@H](C)C(=O)OC)cs1)C(C)C)C(C)C [PTb-D51, Methyl(2S,4R)-4-(2-((R)-3-((S)-2-((R)-1-butylpiperidine-2-carboxamido)-N,3-dimethylbutanamido)-4-methylpentyl)thiazole-4-carboxamido)-2-methyl-5-phenylpentanoate] | > 100 nM | > 100 nM | – | – | – | –
14 | COC(=O)[C@H]1CC[C@H](NC(=O)c2csc([C@@H](C[C@H](C(C)C)N(C)C(=O)[C@@H](NC(=O)[C@H]3CCCCN3C)C(C)C)OC(C)=O)n2)CC1 [Tb-58, Methyl (1R,4r)-4-(2-((1R,3R)-1-acetoxy-3-((S)—N,3-dimethyl-2-((R)-1-methylpiperidine-2-carboxamido)butanamido)-4-methylpentyl)thiazole-4-carboxamido)cyclohexane-1-carboxylate] | 3.83 nM | 6.16 nM | – | – | – | –
15 | COC(=O)C12CC(NC(=O)c3csc([C@@H](C[C@H](C(C)C)N(C)C(=O)[C@@H](NC(=O)[C@H]4CCCCN4C)C(C)C)OC(C)=O)n3)(C1)C2 [Tb-55, Methyl 3-(2-((1R,3R)-1-acetoxy-3-((S)—N,3-dimethyl-2-((R)-1-methylpiperidine-2-carboxamido)butanamido)-4-methylpentyl)thiazole-4-carboxamido)bicyclo[1.1.1]pentane-1-carboxylate] | 0.35 nM | 0.93 nM | – | – | – | –
16 | CCCCN1CCCC[C@@H]1C(=O)N[C@H](C(=O)N(C)[C@H](CCc1nc(C(=O)N[C@@H](Cc2ccccc2)C[C@H](C)C(=O)OC)cs1)C(C)C)[C@@H](C)CC [PTb-D49, Methyl(2S,4R)-4-(2-((R)-3-((2S,3S)-2-((R)-1-butylpiperidine-2-carboxamido)-N,3-dimethylpentanamido)-4-methylpentyl)thiazole-4-carboxamido)-2-methyl-5-phenylpentanoate] | > 100 nM | > 100 nM | – | – | – | –
17 | COC(=O)[C@@H](C)C[C@H](Cc1ccc(F)cc1)NC(=O)c1csc([C@@H](C[C@H](C(C)C)N(C)C(=O)[C@@H](NC(=O)[C@H]2CCCCN2C)C2CC2)OC(C)=O)n1 [Tb-57, Methyl (2S,4R)-4-(2-((1R,3R)-1-acetoxy-3-((S)-2-cyclopropyl-N-methyl-2-((R)-1-methylpiperidine-2-carboxamido)acetamido)-4-methylpentyl)thiazole-4-carboxamido)-5-(4-fluorophenyl)-2-methylpentanoate] | ~105 nM | ~89.3 nM | – | – | – | –
18 | CC[C@H](C)[C@H](NC(=O)[C@H]1CCCCN1C)C(=O)N(C)[C@H](C[C@@H](OC(C)=O)c1nc(C(=O)NC23C4C5C2C2C3C4C52C(=O)OC)cs1)C(C)C (stereo partly drawn) [Tb1l] | – | – | – | – | – | IC50 ([1]; HEK 293T, read-out: IC50 HEK 293T): 0.26 nM; IC50 ([2]; MES SA, read-out: IC50 MES SA): 0.84 nM
19 | CC[C@H](C)[C@H](NC(=O)[C@H]1CCCCN1C)C(=O)N[C@H](C[C@@H](OC(C)=O)c1nc(C(=O)N[C@@H](Cc2ccccc2)C[C@H](C)C(=O)O)cs1)C(C)C [Tb-54, (2S,4R)-4-(2-((1R,3R)-1-Acetoxy-4-methyl-3-((2S,3S)-3-methyl-2-((R)-1-methylpiperidine-2-carboxamido)pentanamido)pentyl)thiazole-4-carboxamido)-2-methyl-5-phenylpentanoic Acid] | – | – | – | – | – | IC50 ([1]; Homo sapiens, HEK 293T, Table 3, read-out: HEK 293T IC50): 0.73 nM; IC50 ([2]; Homo sapiens, MES SA, Table 3, read-out: MES SA IC50): 6.21 nM
20 | CC[C@H](C)[C@H](NC(=O)[C@H]1CCCCN1C)C(=O)N[C@H](C[C@@H](OC(C)=O)c1nc(C(=O)N[C@@H](Cc2ccccc2)C[C@H](C)C(=O)OC)cs1)C(C)C [Tb-53, (2S,4R)-Methyl 4-(2-((1R,3R)-1-acetoxy-4-methyl-3-((2S,3S)-3-methyl-2-((R)-1-methylpiperidine-2-carboxamido)pentanamido)pentyl)thiazole-4-carboxamido)-2-methyl-5-phenyl pentanoate] | 0.56 nM | 0.92 nM | – | – | – | –
